Patent US6362369B1, “Phthalic acid diamide derivatives fluorine-containing aniline compounds as starting material, agricultural and horticultural insecticides, and a method for application of the insecticides” (Nihon Nohyaku Co., Ltd., priority 1997, dated 2002)

Columns and labels:
[1] = test system: diamondback moth (Plutella xylostella); experiment: Insecticidal effect on diamondback moth (Test Example 1); assay type: in vivo; conditions: for Insecticidal effect, Test Example 1: diamondback moth, judged by the mortality criterion of Test Example 1; for Insecticidal effect on diamondback moth (Test Example 1), judged grade: mortality judged according to the criterion shown in Test Example 1
Procedure, shortened: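 Triplicate groups of 10 insects: eggs laid on Chinese cabbage seedling by adults, seedling immersed then air-dried, kept at 25° C. Day-6 hatch counts gave mortality, rated by criterion.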

[2] = test system: rice leafroller (Cnaphalocrocis medinalis); experiment: Insecticidal effect on rice leafroller (Test Example 3); assay type: in vivo; conditions: 500 ppm, four days after inoculation, 25° C., humidity 70%; for Insecticidal effect, Test Example 3: rice lamina immersed, third-instar larvae of rice leafroller; for Insecticidal effect on rice leafroller (Test Example 3), judged grade: rice lamina dip, third-instar larvae
Procedure, shortened: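 Insecticidal effect is judged by a predefined criterion from dead/alive counts four days after infesting air-dried lamina with third-instar larvae, kept on moistened filter paper at 25° C, 70% humidity.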

COc1ccc(NC(=O)c2c(Br)cccc2C(=O)NC(C)C)c(C)c1 [compound 322]
Insecticidal effect, Test Example 1 [1]: A (100) | Insecticidal effect, Test Example 3 [2]: B (99-90)

CC(C)NC(=O)c1cccc(Br)c1C(=O)Nc1ccc(OC(F)(F)F)cc1Br [compound 324]
Insecticidal effect, Test Example 1 [1]: A (100) | Insecticidal effect, Test Example 3 [2]: A (100)

Cc1cc(OC(F)(F)F)ccc1NC(=O)c1c(Br)cccc1C(=O)NC(C)C [compound 326]
Insecticidal effect, Test Example 1 [1]: A (100) | Insecticidal effect, Test Example 3 [2]: A (100)

Cc1cc(OC(F)(F)Br)ccc1NC(=O)c1c(Br)cccc1C(=O)NC(C)C [compound 327]
Insecticidal effect, Test Example 1 [1]: A (100) | Insecticidal effect, Test Example 3 [2]: A (100)

Cc1cc(OC(F)(F)C(F)F)ccc1NC(=O)c1c(Br)cccc1C(=O)NC(C)C [compound 330]
Insecticidal effect, Test Example 1 [1]: A (100) | Insecticidal effect, Test Example 3 [2]: A (100)

Cc1c(NC(=O)c2c(Br)cccc2C(=O)NC(C)C)ccc(OC(F)F)c1Cl [compound 332]
Insecticidal effect, Test Example 1 [1]: A (100) | Insecticidal effect, Test Example 3 [2]: A (100)

CSc1ccc(NC(=O)c2c(Br)cccc2C(=O)NC(C)C)c(C)c1 [compound 333]
Insecticidal effect, Test Example 1 [1]: A (100) | Insecticidal effect, Test Example 3 [2]: D (79-50)

Cc1cc(Oc2ccc(C(F)(F)F)cn2)ccc1NC(=O)c1c(Br)cccc1C(=O)NC(C)C [compound 335]
Insecticidal effect, Test Example 1 [1]: A (100) | Insecticidal effect, Test Example 3 [2]: B (99-90)

Cc1cc(Oc2ncc(C(F)(F)F)cc2Cl)ccc1NC(=O)c1c(Br)cccc1C(=O)NC(C)C [compound 336]
Insecticidal effect, Test Example 1 [1]: A (100) | Insecticidal effect, Test Example 3 [2]: D (79-50)

CC(C)NC(=O)c1cccc(Br)c1C(=O)Nc1ccc2c(c1)OCO2 [compound 337]
Insecticidal effect, Test Example 1 [1]: A (100) | Insecticidal effect, Test Example 3 [2]: A (100)

Cc1cc(OC(F)F)ccc1NC(=O)c1c(Br)ccc(Br)c1C(=O)NC(C)C [compound 340]
Insecticidal effect, Test Example 1 [1]: A (100) | Insecticidal effect, Test Example 3 [2]: A (100)

Cc1cc(Cl)ccc1NC(=O)c1c(Br)ccc(Br)c1C(=O)NC(C)C [compound 341]
Insecticidal effect, Test Example 1 [1]: A (100) | Insecticidal effect, Test Example 3 [2]: A (100)

CC(C)NC(=O)c1c(I)cccc1C(=O)Nc1cccc(C(F)(F)F)c1 [compound 348]
Insecticidal effect, Test Example 1 [1]: A (100) | Insecticidal effect, Test Example 3 [2]: A (100)

COc1ccc(NC(=O)c2cccc(I)c2C(=O)NC(C)C)c(C)c1 [compound 376]
Insecticidal effect, Test Example 1 [1]: A (100) | Insecticidal effect, Test Example 3 [2]: A (100)

Cc1cc(OC(C)C)ccc1NC(=O)c1cccc(I)c1C(=O)NC(C)C [compound 377]
Insecticidal effect, Test Example 1 [1]: A (100) | Insecticidal effect, Test Example 3 [2]: A (100)

CC(C)NC(=O)c1c(I)cccc1C(=O)Nc1cc(Cl)c(OC(F)F)c(Cl)c1 [compound 383]
Insecticidal effect, Test Example 1 [1]: A (100) | Insecticidal effect, Test Example 3 [2]: A (100)

COc1cc(NC(=O)c2cccc(I)c2C(=O)NC(C)C)ccc1OC(F)F [compound 384]
Insecticidal effect, Test Example 1 [1]: A (100) | Insecticidal effect, Test Example 3 [2]: C (89-80)

CC(C)NC(=O)c1cccc(I)c1C(=O)Nc1ccc(Cl)cc1 [compound 411]
Insecticidal effect, Test Example 1 [1]: A (100) | Insecticidal effect, Test Example 3 [2]: A (100)

CC(C)NC(=O)c1cccc(I)c1C(=O)Nc1ccc(Br)cc1 [compound 412]
Insecticidal effect, Test Example 1 [1]: A (100) | Insecticidal effect, Test Example 3 [2]: C (89-80)

CC(C)NC(=O)c1cccc(I)c1C(=O)Nc1ccc(I)cc1 [compound 413]
Insecticidal effect, Test Example 1 [1]: A (100) | Insecticidal effect, Test Example 3 [2]: C (89-80)

CC(C)NC(=O)c1cccc(I)c1C(=O)Nc1cccc(C(F)(F)F)c1 [compound 414]
Insecticidal effect, Test Example 1 [1]: A (100) | Insecticidal effect, Test Example 3 [2]: A (100)

CC(C)NC(=O)c1cccc(I)c1C(=O)Nc1ccc(SCC(F)(F)F)cc1 [compound 420]
Insecticidal effect, Test Example 1 [1]: A (100) | Insecticidal effect, Test Example 3 [2]: D (79-50)

Cc1c(Cl)cccc1NC(=O)c1c(I)cccc1C(=O)NC(C)C [compound 427]
Insecticidal effect, Test Example 1 [1]: A (100) | Insecticidal effect, Test Example 3 [2]: D (79-50)

Cc1cc(F)ccc1NC(=O)c1c(I)cccc1C(=O)NC(C)C [compound 432]
Insecticidal effect, Test Example 1 [1]: A (100) | Insecticidal effect, Test Example 3 [2]: A (100)

CC(C)NC(=O)c1cccc(I)c1C(=O)Nc1ccc(C(F)(F)F)cc1Cl [compound 433]
Insecticidal effect, Test Example 1 [1]: A (100) | Insecticidal effect, Test Example 3 [2]: A (100)

COc1ccc(NC(=O)c2c(I)cccc2C(=O)NC(C)C)c(C)c1 [compound 441]
Insecticidal effect, Test Example 1 [1]: A (100) | Insecticidal effect, Test Example 3 [2]: B (99-90)

Cc1cc(OCC(F)(F)F)ccc1NC(=O)c1c(I)cccc1C(=O)NC(C)C [compound 443]
Insecticidal effect, Test Example 1 [1]: A (100) | Insecticidal effect, Test Example 3 [2]: D (79-50)

Cc1cc(OC(F)(F)C(F)(F)Br)ccc1NC(=O)c1c(I)cccc1C(=O)NC(C)C [compound 444]
Insecticidal effect, Test Example 1 [1]: A (100) | Insecticidal effect, Test Example 3 [2]: A (100)

CC(C)NC(=O)c1cccc(I)c1C(=O)Nc1ccc(OC(F)F)c(F)c1 [compound 448]
Insecticidal effect on diamondback moth (Test Example 1), judged grade [1]: A (100) | Insecticidal effect on rice leafroller (Test Example 3), judged grade [2]: A (100)

COc1cc(NC(=O)c2c(I)cccc2C(=O)NC(C)C)ccc1OC(F)F [compound 450]
Insecticidal effect on diamondback moth (Test Example 1), judged grade [1]: A (100) | Insecticidal effect on rice leafroller (Test Example 3), judged grade [2]: C (89-80)

Cc1cc(OC(F)(F)C(F)C(F)(F)F)ccc1NC(=O)c1c(I)cccc1C(=O)NC(C)C (stereo not drawn) [compound 456]
Insecticidal effect on diamondback moth (Test Example 1), judged grade [1]: A (100) | Insecticidal effect on rice leafroller (Test Example 3), judged grade [2]: A (100)

Cc1cc(OC(F)(F)F)ccc1NC(=O)c1c(I)cccc1C(=O)NC(C)C [compound 464]
Insecticidal effect on diamondback moth (Test Example 1), judged grade [1]: A (100) | Insecticidal effect on rice leafroller (Test Example 3), judged grade [2]: A (100)

CC(C)NC(=O)c1cccc(I)c1C(=O)Nc1ccc(OC(F)(F)F)cc1Br [compound 466]
Insecticidal effect on diamondback moth (Test Example 1), judged grade [1]: A (100) | Insecticidal effect on rice leafroller (Test Example 3), judged grade [2]: A (100)

CC(C)NC(=O)c1cccc(I)c1C(=O)Nc1ccc(OC(F)(F)F)cc1Cl [compound 467]
Insecticidal effect on diamondback moth (Test Example 1), judged grade [1]: A (100) | Insecticidal effect on rice leafroller (Test Example 3), judged grade [2]: A (100)

CC(C)NC(=O)c1c(F)cccc1C(=O)Nc1ccc(C(F)(F)C(F)(F)C(F)(F)C(F)(F)F)cc1 [compound 472]
Insecticidal effect on diamondback moth (Test Example 1), judged grade [1]: A (100) | Insecticidal effect on rice leafroller (Test Example 3), judged grade [2]: B (99-90)

CC(C)NC(=O)c1c(F)cccc1C(=O)Nc1ccc(OC(F)(F)F)cc1 [compound 475]
Insecticidal effect on diamondback moth (Test Example 1), judged grade [1]: A (100) | Insecticidal effect on rice leafroller (Test Example 3), judged grade [2]: D (79-50)

CC(C)NC(=O)c1c(F)cccc1C(=O)Nc1ccc(SC(F)F)cc1 [compound 477]
Insecticidal effect on diamondback moth (Test Example 1), judged grade [1]: A (100) | Insecticidal effect on rice leafroller (Test Example 3), judged grade [2]: C (89-80)

CC(C)NC(=O)c1c(F)cccc1C(=O)Nc1ccc(SC(F)(F)C(F)F)cc1 [compound 479]
Insecticidal effect on diamondback moth (Test Example 1), judged grade [1]: A (100) | Insecticidal effect on rice leafroller (Test Example 3), judged grade [2]: A (100)

Cc1c(F)cccc1NC(=O)c1cccc(F)c1C(=O)NC(C)C [compound 494]
Insecticidal effect on diamondback moth (Test Example 1), judged grade [1]: A (100) | Insecticidal effect on rice leafroller (Test Example 3), judged grade [2]: A (100)
